Molecular target: recombinant CaMKIIδ (Homo sapiens (Human), UniProt Q13557)
Assay: CaMKIIδ biochemical assay (HTRF)
Conditions: 10 pM CaMKIIδ, 110 nM calmodulin, 12 μM ATP, 1 hour; read-out: CAMKIID-HTRF-384V2 (IC50 - nM)
Description: CaMKIIδ Biochemical Assay
The biochemical activity of recombinant CaMKIIδ was measured by monitoring the phosphorylation of a target peptide using Homogenous Time Resolved Fluorescence (HTRF) technology from CisBio Bioassays.

Structure (SMILES) | IC50
CCN(CC)[C@@H](C)CNC(=O)c1cc(-c2cnn3ccc(-c4cccs4)nc23)nc(N2CC(NC)C2)c1 [Example 205, (S)—N-(2-(diethylamino)propyl)-2-(3-(methylamino)azetidin-1-yl)-6-(5-(thiophen-2-yl)pyrazolo[1,5-a]pyrimidin-3-yl)isonicotinamide] | 0.1 nM
CCN(CC)[C@@H](C)CNC(=O)c1cc(-c2cnn3ccc(-c4cccs4)nc23)nc(N2CC(N(C)C)C2)c1 [Example 206, (S)—N-(2-(diethylamino)propyl)-2-(3-(dimethylamino)azetidin-1-yl)-6-(5-(thiophen-2-yl)pyrazolo[1,5-a]pyrimidin-3-yl)isonicotinamide] | 0.1 nM
CCN(CC)[C@@H](C)CNC(=O)c1cc(-c2cnn3ccc(-c4cccs4)nc23)nc(N2CCNCC2)c1 [Example 207, (S)—N-(2-(diethylamino)propyl)-2-(piperazin-1-yl)-6-(5-(thiophen-2-yl)pyrazolo[1,5-a]pyrimidin-3-yl)isonicotinamide] | 0.21 nM
CCN(CC)[C@@H](C)CNC(=O)c1cc(-c2cnn3ccc(-c4cccs4)nc23)nc(N2CC(C(N)=O)C2)c1 [Example 208, (S)-2-(3-carbamoylazetidin-1-yl)-N-(2-(diethylamino)propyl)-6-(5-(thiophen-2-yl)pyrazolo[1,5-a]pyrimidin-3-yl)isonicotinamide] | 0.07 nM
CCN(CC)[C@@H](C)CNC(=O)c1cc(-c2cnn3ccc(-c4cccs4)nc23)nc(N2CC[C@H](OC)C2)c1 [Example 209, N—((S)-2-(diethylamino)propyl)-2-((S)-3-methoxypyrrolidin-1-yl)-6-(5-(thiophen-2-yl)pyrazolo[1,5-a]pyrimidin-3-yl)isonicotinamide] | 0.17 nM
CCN(CC)[C@@H](C)CNC(=O)c1cc(-c2cnn3ccc(-c4cccs4)nc23)nc(N2CC(Oc3ccc(F)cc3)C2)c1 [Example 210, (S)—N-(2-(diethylamino)propyl)-2-(3-(4-fluorophenoxy)azetidin-1-yl)-6-(5-(thiophen-2-yl)pyrazolo[1,5-a]pyrimidin-3-yl)isonicotinamide] | 18.2 nM
CCN(CC)[C@@H](C)CNC(=O)c1cc(NCc2cc[nH]n2)nc(-c2cnn3ccc(-c4cccs4)nc23)c1 [Example 212, (S)-2-(((1H-pyrazol-3-yl)methyl)amino)-N-(2-(diethylamino)propyl)-6-(5-(thiophen-2-yl)pyrazolo[1,5-a]pyrimidin-3-yl)isonicotinamide] | 0.3 nM
CCN(CC)[C@@H](C)CNC(=O)c1cc(NC2CC2)nc(-c2cnn3ccc(-c4cccs4)nc23)c1 [Example 213, (S)-2-(cyclopropylamino)-N-(2-(diethylamino)propyl)-6-(5-(thiophen-2-yl)pyrazolo[1,5-a]pyrimidin-3-yl)isonicotinamide] | 0.18 nM
CCN(CC)[C@@H](C)CNC(=O)c1cc(-c2cnn3ccc(-c4cccs4)nc23)nc(N2CC(O)(CC)C2)c1 [Example 214, (S)—N-(2-(diethylamino)propyl)-2-(3-ethyl-3-hydroxyazetidin-1-yl)-6-(5-(thiophen-2-yl)pyrazolo[1,5-a]pyrimidin-3-yl)isonicotinamide] | 0.18 nM
CCN(CC)[C@@H](C)CNC(=O)c1cc(-c2cnn3ccc(-c4cccs4)nc23)nc(N2CC(C(C)(C)O)C2)c1 [Example 215, (S)—N-(2-(diethylamino)propyl)-2-(3-(2-hydroxypropan-2-yl)azetidin-1-yl)-6-(5-(thiophen-2-yl)pyrazolo[1,5-a]pyrimidin-3-yl)isonicotinamide] | 0.22 nM
CCN(CC)[C@@H](C)CNC(=O)c1cc(-c2cnn3ccc(-c4cccs4)nc23)nc(N2CC(CO)C2)c1 [Example 216, (S)—N-(2-(diethylamino)propyl)-2-(3-(hydroxymethyl)azetidin-1-yl)-6-(5-(thiophen-2-yl)pyrazolo[1,5-a]pyrimidin-3-yl)isonicotinamide] | 0.1 nM

— patent publication US10100058B2, “Fused heterocyclic compounds as CaM kinase inhibitors” (Gilead Sciences, Inc., priority 2016, dated 2018)
